According to patent US11452762B2, “Method of treating rhinitis with C-type natriuretic peptides” (IGISU Co., Ltd., priority 2009, dated 2022):
“Also recorded” adds a separate entry of the source.

Key:
[1] = system: patients with rhinitis, allergic rhinitis in particular; test: Administration tests of CNP, BNP or ANP nasal solution preparations in rhinitis patients (case studies); format: in vivo, human; details: for Symptom improvement (severity level before → after application): 50 μg/ml nasal solution, one spray (130 μl, 6.5 μg) in each nostril once or twice a day, each value one patient (Case); for Effect on nasal itching / tickling feeling (in words): 50 μg/ml twice a day; for Time after application until slight improvement in nasal itching: initial application; for Overall effect on rhinitis symptoms (in words): patients with rhinitis, BNP versus ANP
Experimental: Diagnosis, evaluation of symptoms, and examination of the CNP nasal drop preparations, BNP nasal drop preparations and ANP nasal drop preparation were performed as follows. The subjects are patients in whom conventional external medicines such as steroids are not sufficiently effective, or patients in whom the use of steroids must be avoided due to local side effects such as nasal irritation and dryness. Diagnosis and treatment of these subjects were performed by the present applicant as a medical doctor. Severity evaluation of symptoms of allergic rhinitis was performed, in principle, in accordance with “Guidelines for medical care of nasal allergies, 2009 edition” (edited by the committee for creation of guidelines for medical care of nasal allergies), by classifying into 5 stages as shown below. Here, “mixed type” refers to the cases wherein both of the sneezing attack or rhinorrhea and the nasal occlusion were presented with the same severity. […] In the above table, evaluation scores for sneezing fit, rhinorrhea and nasal occlusion are as described in the table below. […] Administration tests of the nasal solution preparations of the present invention were performed by, in principle, spraying the CNP nasal solution, BNP nasal solution or ANP nasal solution used to fill a nasal spraying device twice a day at awakening time and before bedtime, with one spray in each nostril at each time. […] Prior to the application of CNP preparations, BNP preparations or ANP preparation, the subjects' history was obtained, scratch tests for allergens were performed and diagnosis was made.

pollen allergy = details: after 2 weeks of application, spraying once a day; cited from earlier work
[2] = 50 μg/ml, initial or continued application, listed as ANP nasal solution

CC[C@H](C)[C@@H]1NC(=O)[C@H](CCCNC(=N)N)NC(=O)[C@H](CC(=O)O)NC(=O)[C@H](CCSC)NC(=O)[C@H](CCCCN)NC(=O)[C@H](CCCNC(=N)N)NC(=O)CNC(=O)[C@H](Cc2ccccc2)NC(=O)[C@@H](NC(=O)CNC(=O)[C@H](CO)NC(=O)CNC(=O)[C@H](CCC(N)=O)NC(=O)[C@@H](NC(=O)[C@H](CCSC)NC(=O)[C@H](CCCCN)NC(=O)[C@@H]2CCCN2C(=O)[C@@H](N)CO)C(C)C)CSSC[C@@H](C(=O)N[C@@H](CCCCN)C(=O)N[C@H](C(=O)N[C@@H](CC(C)C)C(=O)N[C@@H](CCCN=C(N)N)C(=O)N[C@@H](CCCN=C(N)N)C(=O)N[C@@H](Cc2cnc[nH]2)C(=O)O)C(C)C)NC(=O)CNC(=O)[C@H](CC(C)C)NC(=O)CNC(=O)[C@H](CO)NC(=O)[C@H](CO)NC(=O)[C@H](CO)NC(=O)[C@H](CO)NC1=O [BNP nasal solution preparation, human BNP-32]
Local irritation symptoms / side effects ([1]; 50 μg/ml nasal spray): later. No irritation | Local irritation symptoms / side effects ([1]; 50 μg/ml nasal spray, listed as BNP nasal solution): local irritation symptoms did not occur; also recorded: no irritation symptoms were observed | Local irritation symptoms / side effects ([1]; 100 μg/ml nasal spray): it does not exhibit such side effects | Local irritation symptoms / side effects ([1]; 200 μg/ml nasal spray, listed as BNP nasal solution): no local irritation symptoms or feelings of discomfort

CC[C@H](C)[C@@H]1NC(=O)[C@H](CCCNC(=N)N)NC(=O)[C@H](CC(=O)O)NC(=O)[C@H](CC(C)C)NC(=O)[C@H](CCCCN)NC(=O)[C@H](CC(C)C)NC(=O)CNC(=O)[C@H](Cc2ccccc2)NC(=O)[C@@H](NC(=O)CNC(=O)[C@H](CCCCN)NC(=O)[C@H](CO)NC(=O)[C@H](CC(C)C)NC(=O)CN)CSSC[C@@H](C(=O)O)NC(=O)CNC(=O)[C@H](CC(C)C)NC(=O)CNC(=O)[C@H](CO)NC(=O)[C@H](CCSC)NC(=O)[C@H](CO)NC(=O)CNC1=O [CNP nasal solution preparation, human CNP-22]
Local irritation symptoms / side effects ([1]; 100 μg/ml nasal spray): side effects such as local irritation symptoms were not observed; also recorded: No local irritation symptoms were observed; also recorded: No local side effects such as irritation, as well as no systemic side effects such as drowsiness were observed; also recorded: without irritation or local side effects; also recorded: without any irritation symptoms | Permeability of the nasal solution (in words) ([1]; 100 μg/ml nasal spray): good and good permeability

C[C@@H]1C[C@H]2[C@@H]3CCC4=CC(=O)C=C[C@]4(C)[C@@]3(Cl)[C@@H](O)C[C@]2(C)[C@@]1(OC(=O)c1ccco1)C(=O)CCl [Mometasone furoate hydrate]
Degree of improvement in nasal occlusion (pollen allergy): 30-40% | Degree of improvement in overall symptoms (pollen allergy): 40-50%

human ANP-28 [ANP nasal solution preparation]
Symptom improvement (severity level before → after application) [1]: Severe → severe | Symptom improvement (severity level before → after application) ([1]; listed as ANP nasal solution): severe before the ANP application to still severe | Effect on nasal itching / tickling feeling (in words) [1]: improved slightly. | Effect on nasal itching / tickling feeling (in words) ([1]; listed as ANP nasal solution): slightly improved | Time after application until slight improvement in nasal itching ([1]; 50 μg/ml): At 1 hr later, a slight | Time after application until slight improvement in nasal itching ([1]; 50 μg/ml, listed as ANP nasal solution): One hour later | Effect on nasal occlusion (in words) ([1]; 50 μg/ml, initial or continued application): sensation was not improved. | Effect on nasal occlusion (in words) [1, 2]: not improved; also recorded: no changes | Effect on rhinorrhea / runny nose (in words) [1, 2]: did not stop; also recorded: no changes; also recorded: not improved; also recorded: No improvement | Number of nose blows under application ([1]; 50 μg/ml, once or twice a day): approximately 20 times a day | Persistence of the effects of an application (in words) ([1]; 50 μg/ml, one application, listed as ANP nasal solution): persistence was short | Time after application until nasal passages opened ([1]; 50 μg/ml, subjective, listed as ANP nasal solution): 20 min | Overall effect on rhinitis symptoms (in words) [1]: no immediate effect was observed | Overall effect on rhinitis symptoms (in words) ([1]; listed as ANP preparations): no improvements or worsening
